{"source": "paper PMC12139501", "about": "“Acetyl-11-keto-β-boswellic acid alleviates hepatic metabolic dysfunction by inhibiting MGLL activity” (Journal of Lipid Research, 2025)", "key": {"[1]": {"target": "T1, monoacylglycerol lipase (MGLL) (Mus musculus, UniProt O35678)", "T1 sequence (O35678 1-303)": "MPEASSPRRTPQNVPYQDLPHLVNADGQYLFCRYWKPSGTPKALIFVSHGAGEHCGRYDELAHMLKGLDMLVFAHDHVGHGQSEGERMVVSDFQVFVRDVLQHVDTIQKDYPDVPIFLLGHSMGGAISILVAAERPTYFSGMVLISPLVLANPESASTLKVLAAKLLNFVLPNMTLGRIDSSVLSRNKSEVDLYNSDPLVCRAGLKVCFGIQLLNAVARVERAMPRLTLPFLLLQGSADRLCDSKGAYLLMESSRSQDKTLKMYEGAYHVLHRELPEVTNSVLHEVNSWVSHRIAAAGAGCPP", "assay": "LC-MS 2-oleoylglycerol hydrolysis assay in hepatocyte lysate, […]", "type": "cell-based", "parameters": "endogenous or adenovirus-overexpressed MGLL in primary hepatocyte homogenate"}, "[2]": {"target": "T1, monoacylglycerol lipase (MGLL)", "assay": "ITC with purified MGLL; supported by pull-down and LC-MS activity assay in hepatocyte lysate", "type": "binding", "parameters": "N-terminal 6×His fusion protein of the mouse MGLL domain"}}, "data": [{"molecule": "COC(=O)[C@]1(C)CC[C@]2(C)CC[C@]3(C)C4=CC=C5C(=CC(=O)C(O)=C5C)[C@]4(C)CC[C@@]3(C)[C@@H]2C1", "note": "[pristimerin]", "values": [{"measurement": "LC-MS 2-oleoylglycerol hydrolysis assay in hepatocyte lysate, 50 μM", "setting": "[1]", "result": "both AKBA and pristimerin significantly reduced MGLL activity in wild-type primary hepatocytes as well as in those overexpressing MGLL"}]}, {"molecule": "CC(=O)O[C@@H]1CC[C@@]2(C)[C@@H](CC[C@]3(C)[C@@H]2C(=O)C=C2[C@@H]4[C@@H](C)[C@H](C)CC[C@]4(C)CC[C@]23C)[C@@]1(C)C(=O)O", "note": "[AKBA]", "values": [{"measurement": "Kd", "setting": "[2]", "result": 40.6, "unit": "µM"}]}]}
